Legend:
dog STING (dSTING) = experiment: Dog differential scanning fluorimetry (DSF) assay, thermal shift of dog STING protein; type: binding; conditions: DSF (dDSF); 100 μM compound, 3 μM dog STING protein; Tm with ligand minus Tm of protein alone
Source text: The protein used for the biophysical experiments was a recombinant dog STING protein comprising its cytosolic cGAMP binding ectodomain. A codon optimized DNA sequence (for expression in Escherichia coli) encoding amino acid residues 149 to 375 of dog STING was synthesized by GeneArt (Regensburg, Germany) and inserted into a pET17b E. coli expression vector. The protein construct encodes an N-terminal 8×His-tag followed by tobacco etch virus protease (TEV) cleavage site and the above STING gene sequence. The resulting protein sequence for the used dog STING protein (SEQ ID No. 1) is listed below:
For expression of the above recombinant dog STING, the construct was transformed into E. coli BL21 DE3 strain and grown in shake flasks in LB-medium at 15° C. Expression was induced by addition of isopropyl β-D-1-thiogalactopyranoside to a final concentration of 1 mM and cultures shaken overnight. Cell pellets were centrifuged and stored at −70° C. until further use. Protein was purified by cell thawing in lysis buffer (20 mM TRIS-HCl, pH 8, 500 mM NaCl, 1 mM DTT, 0.5 mg/ml lysozyme, Complete Protease Inhibitor (Roche) and DNase (Roche)), followed by metal affinity purification using Ni-NTA resins and elution buffer consisting of 20 mM TRIS-HCl, pH 8, 500 mM NaCl, 1 mM DTT, 300 mM imidazole. Cleavage of the His-Tag using TEV-protease took place during dialysis in size exclusion buffer (20 mM TRIS-HCl, pH 8, 100 mM NaCl, 1 mM DTT) over night. To further purify the target protein a reverse Nickel affinity column was used and the flow through was applied to a size exclusion chromatography. The peak fraction was collected and concentrated to 5 mg/mL.
Dye fluorescence is quenched in aqueous environment and increases upon association of the dye with the hydrophobic parts of the unfolding protein. […] The inflection point of the curve represents the “melting” temperature of the protein (Tm) which is calculated numerically using the Boltzmann equation.
The thermal stability of the dog STING protein was measured in assay buffer containing 20 mM Tris, 150 mM NaCl at pH7.5. The assay uses 384-Well qPCR Plates (Catalog #781358, BRAND), Microseal® ‘B’ Adhesive Seals for PCR Plates (Catalog #MSB-1001, BIO-RAD) and was run on a CFX384 Real-Time System (Bio-Rad). A DMSO stock solution of SYPRO orange (SIGMA 55692-500UL) was prepared. Compound stock solutions (10 mM in DMSO) were diluted 1:2 in DMSO to an intermediate compound concentration of 5 mM and then further diluted 1:40 in assay buffer resulting in a compound concentration of 125 μM and 2.5% DMSO. Fluorescent dye stock solution (5000×SYPRO Orange) was then mixed with target protein and buffer to a concentration of 15 μM Protein and 25×SYPRO Orange. 2 μl of this protein-dye-mixture was added to 8 μl compound solution. Final volume was 10 μL. 3-6 well positions were used as negative control (protein with 2% DMSO). The plates were prepared for duplicate measurement and centrifuged for 2 min at 1000 g. In the measurement, 160 cycles of 0.5° C. were used (temperature ramp 15 s/cycle, 15° C. to 95° C.).
Final Assay concentrations for compound characterization were 100 μM compound, 3 μM target protein, 5×SYPRO Orange, and 2% DMSO in 10 μl. All dispensing steps were performed using a HamiltonStar pipetting robot (Hamilton).
Dissociation curves were processed in Bio-Rad CFX Manager. Peak type was set to “negative”. Compound codes for screen were assigned in the plate layout.
Two replicates of TM measurements were averaged, and the standard deviation was calculated. In cases of SD>1.5° C. the measurement was repeated.
The melting point (Tm) obtained for STING protein alone was subtracted from T obtained for protein incubated with ligand to generate ΔTm values.

STING = STING (Canis lupus familiaris, UniProt A0A8I3MH52); experiment: Dog whole blood (dWB) assay, IFNb secretion by ELISA; type: cell-based; conditions: canine Interferon-beta (IFNb) ELISA, 4 h incubation at 37° C.
STING, sequence (A0A8I3MH52 1-374): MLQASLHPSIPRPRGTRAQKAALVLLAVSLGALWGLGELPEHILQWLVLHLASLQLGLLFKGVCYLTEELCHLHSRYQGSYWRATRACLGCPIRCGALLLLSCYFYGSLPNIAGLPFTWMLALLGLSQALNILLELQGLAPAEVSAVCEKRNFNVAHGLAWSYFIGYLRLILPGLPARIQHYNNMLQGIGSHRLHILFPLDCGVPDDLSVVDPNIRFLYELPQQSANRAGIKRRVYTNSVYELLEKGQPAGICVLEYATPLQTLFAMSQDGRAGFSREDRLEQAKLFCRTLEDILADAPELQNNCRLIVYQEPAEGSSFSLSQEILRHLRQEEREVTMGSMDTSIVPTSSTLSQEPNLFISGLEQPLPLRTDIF
Procedure: For the detection of STING activation in physiological environment dog whole blood (dWB) was stimulated by the cyclic dinucleotide cGAMP or a test compound. Pathway activity was monitored by measuring the IFNb production.
Compounds were delivered as 10 mM DMSO solution, diluted and transferred by using an Echo acoustic dispenser to the 384 well assay plate (Greiner #781182), pre-filled with 10 μl 1×HBSS in each well (10×HBSS (+Ca/+Mg), #14065-049, Gibco). Typically, 8 concentrations were used with the highest concentration at 10 μM in the final assay volume followed by approximately 1:4 dilution steps. DMSO concentration was set to 0.1% in the final assay volume. The 384-well assay plate contained 20 test compounds and DMSO in control and cGAMP standard wells. The dog whole blood was collected as Na-Citrate blood (e.g., 3.8% in Monovettes from Sarstedt) and kept at 4° C. overnight until use in the assay. 80 μl of the whole blood samples were transferred to each well of the 384-well assay plates filled with compound/1×HBSS. Blood plates were kept at room temperature for 60 minutes and continuous shaking with 450 rpm, covered with the lid, but not sealed. A 10×cGAMP assay solution was diluted from a 2 mM stock solution in 1×HBSS immediately before use at room temperature. 10 μl of the 10×cGAMP/HBSS were added to the high control wells, whereas HBSS only was added to all compound and low control wells. After covering assay plates with the lid, blood plates were kept for a 4 h incubation at 37° C. in the incubator, without shaking. For the detection of IFNb in dog plasma the ELISA Kit for Canine Interferon Beta (Biotrend #SEA222Ca) was used. Whole blood assay plates were centrifuged at 1000 g for 10 minutes at 8° C. […] was transferred with a 96 well pipetting robotics from the 384 well whole blood plate to the corresponding 96 well ELISA plate, pre-filled with 60 μl assay diluent in each well. Plates were sealed with microplate seals and kept at 4° C. overnight again. ELISA plates were brought to room temperature, followed by a 1 h incubation at 37° C. in the incubator. Detection Reagent A working solution was prepared by diluting Detection Reagent A 1:100 in Assay Reagent A. Liquid was then removed from the 96 well ELISA plate to add 100 μL Detection Reagent A working solution to each well. ELISA plates were covered with the plate sealer and incubated for 1 hour at 37° C. in the incubator. The 1× Wash buffer was prepared by diluting the 30× Wash Buffer Concentrate in H2O. Detection Reagent B working solution was prepared by diluting Detection Reagent B 1:100 in Assay Reagent B. The ELISA plates were washed three times with 350 μl wash buffer and afterwards inverted and blotted against absorbent paper to remove any liquid. 100 μL of Detection Reagent B working solution was added to each well of the ELISA plates, which are then covered with the plate sealer and incubated for 30 minutes at 37° C. in the incubator. After incubation the ELISA assay plates were washed five times with 350 μl wash buffer and were again inverted and blotted against absorbent paper to remove any remaining liquid. 90 μL of TMB Substrate was added to each well of the ELISA plates, which were then covered with the plate sealer and incubated for 15 minutes at 37° C. in the incubator. The reaction was stopped by adding 50 μL stop solution and absorbance was measured at 450 nm immediately.
For data evaluation and calculation, % control calculation of each well was based on the mean of high (cGAMP stimulated control) and mean of low (unstimulated control) controls by using the following standard 4 parameter logistic regression formula:
[y=(a−d)/(1+(x/c)^b)+d] • a=low value, • d=high value, • x=conc M, • c=EC50 M, • b=slope. Dog Liver Microsome (dLM) Assay

**Q.** What does the source list for `CC(=O)N1C[C@@H]2C[C@H]1CN2c1ccc(-n2nc(-c3c(F)ccc4nn(C)cc34)c3cccc(C)c32)cn1` [Example 30, 1-[(1S,4S)-5-(5-{5″-fluoro-2″,7-dimethyl-1H,2″H-[3,4″-biindazol]-1-yl}pyridin-2-yl)-2,5-diazabicyclo[2.2.1]heptan-2-yl]ethan-1-one]?
**A.** Delta TM (dog STING (dSTING)): 30.8 °C; EC50 (STING): 227 nM

**Q.** Which “Delta TM” value (dog STING (dSTING)) does the source give for `CC(=O)N1CCN(c2ccc(-n3nc(-c4cccc5nn(C)c(F)c45)c4cccc(C)c43)cn2)CC1` [Example 8, 1-[4-(5-{3″-Fluoro-2″,7-dimethyl-1H,2″H-[3,4″-biindazol]-1-yl}pyridin-2-yl)piperazin-1-yl]ethan-1-one] here?
**A.** 32.5 °C

**Q.** What about the EC50 (STING) of the same molecule?
**A.** 168 nM

**Q.** What does the source list for `Cc1cccc2c(-c3c(F)cc(F)c4nn(C)c(F)c34)nn(-c3ccc(N4C[C@@H]5[C@H](C4)[C@H]5C(=O)O)nc3)c12` [Example 76, (1R,5S,6R)-3-(5-{3″,5″,7″-trifluoro-2″,7-dimethyl-1H,2″H-[3,4″- biindazol]-1-yl}pyridin-2-yl)-3-azabicyclo[3.1.0]hexane-6-carboxylic acid]?
**A.** Delta TM (dog STING (dSTING)): 33.0 °C; EC50 (STING): 695 nM

**Q.** `CC(=O)N1C[C@H]2C[C@@H]1CN2c1ccc(-n2nc(-c3c(F)cc(F)c4nn(C)cc34)c3cccc(C)c32)cn1` [Example 51, 1-[(1R,4R)-5-(5-{5″,7″-difluoro-2″,7-dimethyl-1H,2″H-[3,4″-biindazol]-1-yl}pyridin-2-yl)-2,5-diazabicyclo[2.2.1]heptan-2-yl]ethan-1-one] was tested. Which “Delta TM” value (dog STING (dSTING)) did it give?
**A.** 29.0 °C

**Q.** And the EC50 (STING)?
**A.** 670 nM

**Q.** For `CC(=O)N1CCN(c2ccc(-n3nc(-c4c(F)cc(F)c5nn(C)cc45)c4cccc(C)c43)cn2)CC1` [Example 49, 1-[4-(5-{5″,7″-difluoro-2″,7-dimethyl-1H,2″H-[3,4″-biindazol]-1-yl}pyridin-2-yl)piperazin-1-yl]ethan-1-one], which “Delta TM” value (dog STING (dSTING)) is on record?
**A.** 30.5 °C

**Q.** What about the EC50 (STING) of the same molecule?
**A.** 416 nM

**Q.** What does the source list for `Cc1cccc2c(-c3cccc4nn(C)c(F)c34)nn(-c3ccc(N4C[C@@H]5C[C@H]4C[C@H]5C(=O)O)nc3)c12` [Example 73-2, (1S,4R,5R)-2-(5-{3″-fluoro-2″,7-dimethyl-1H,2″H-[3,4″-biindazol]-1-yl}pyridin-2-yl)-2-azabicyclo[2.2.1]heptane-5-carboxylic acid]?
**A.** Delta TM (dog STING (dSTING)): 33.3 °C; EC50 (STING): 232 nM

**Q.** `Cc1cc(F)cc2c(-c3ccc(F)c4nn(C)cc34)nn(-c3ccc(N4C[C@@H]5[C@H](C4)[C@H]5C(=O)O)nc3)c12` [Example 12, (1R,5S,6R)-3-(5-{5,7″-Difluoro-2″,7-dimethyl-1H,2″H-[3,4″-biindazol]-1-yl}pyridin-2-yl)-3-azabicyclo[3.1.0]hexane-6-carboxylic acid] was tested. Which “Delta TM” value (dog STING (dSTING)) did it give?
**A.** 21.7 °C

**Q.** What about the EC50 (STING) of the same molecule?
**A.** 609 nM

**Q.** For `Cc1cc(F)cc2c(-c3c(F)ccc4nn(C)cc34)nn(-c3ccc(N4CCC(C(=O)O)CC4)nc3)c12` [Example 62, 1-(5-{5,5″-difluoro-2″,7-dimethyl-1H,2″H-[3,4″-biindazol]-1-yl}pyridin-2-yl)piperidine-4-carboxylic acid], which “Delta TM” value (dog STING (dSTING)) is on record?
**A.** 38.0 °C

**Q.** And the EC50 (STING)?
**A.** 295 nM

**Q.** What does the source list for `Cc1cccc2c(-c3cccc4nn(C)c(F)c34)nn(-c3ccc(N4CC[C@@H](CC(=O)O)C4)nc3)c12` [Example 16, 2-[(3S)-1-(5-{3″-fluoro-2″,7-dimethyl-1H,2″H-[3,4″-biindazol]-1-yl}pyridin-2-yl)pyrrolidin-3-yl]acetic acid]?
**A.** Delta TM (dog STING (dSTING)): 34.0 °C; EC50 (STING): 267 nM

**Q.** How did the “Delta TM” value (dog STING (dSTING)) turn out when `Cc1cccc2c(-c3c(F)ccc4nn(C)cc34)nn(-c3ccc(N4CC5CCC4CC5C(=O)O)nc3)c12` (single isomer, unassigned) [Example 28-4] was run?
**A.** 37.9 °C

**Q.** And the EC50 (STING)?
**A.** 206 nM

**Q.** `CC(=O)N1CC2CCC1CN2c1ccc(-n2nc(-c3cc(F)cc4nn(C)cc34)c3cccc(C)c32)cn1` (stereo not drawn) [Example 43, 1-[5-(5-{6″-fluoro-2″,7-dimethyl-1H,2″H-[3,4″-biindazol]-1-yl}pyridin-2-yl)-2,5-diazabicyclo[2.2.2]octan-2-yl]ethan-1-one] was tested. Which “Delta TM” value (dog STING (dSTING)) did it give?
**A.** 16.0 °C

**Q.** `Cc1cccc2c(-c3cccc4nn(C)c(F)c34)nn(-c3ccc(N4CC5CCC4CC5C(=O)O)nc3)c12` (single isomer, unassigned) [Example 20-1, 2-(5-{3'-fluoro-2',7-dimethyl-1H,2'H-[3,4'-biindazol]-1-yl}pyridin-2-yl)-2-azabicyclo[2.2.2]octane-5-carboxylic acid] was tested. Which “Delta TM” value (dog STING (dSTING)) did it give?
**A.** 20.9 °C

**Q.** `Cc1cccc2c(-c3cccc4nn(C)c(F)c34)nn(-c3ccc(N4C[C@@H]5C[C@H]4C[C@H]5C(=O)O)nc3)c12` (racemic) [Example 19, 2-(5-{3″-fluoro-2″,7-dimethyl-1H,2″H-[3,4″-biindazol]-1-yl}pyridin-2-yl)-2-azabicyclo[2.2.1]heptane-5-carboxylic acid] was tested. Which “Delta TM” value (dog STING (dSTING)) did it give?
**A.** 34.3 °C

**Q.** How did the “Delta TM” value (dog STING (dSTING)) turn out when `Cc1c(F)ccc2c(-c3c(F)cc(F)c4nn(C)cc34)nn(-c3ccc(N4C[C@@H]5[C@H](C4)[C@H]5C(=O)O)nc3)c12` [Example 69, (1R,5S,6S)-3-(5-{5″,6,7″-trifluoro-2″,7-dimethyl-1H,2″H-[3,4″-biindazol]-1-yl}pyridin-2-yl)-3-azabicyclo[3.1.0]hexane-6-carboxylic acid] was run?
**A.** 35.0 °C

Reference: patent US20240174641A1, “HETEROCYCLIC COMPOUNDS CAPABLE OF […]” (Boehringer Ingelheim International GmbH, priority 2022, published 2024)
